BindingDB's records for doi:10.1021/jm701311r (Georgia Institute of Technology, 2008)

Experiments:
Assay in all cases: AE Enzyme Inhibition Assay
Legumain [1] = target: T1, Legumain (Ixodes ricinus, UniProt Q6PRC7); settings: 25 °C
T1 sequence (Q6PRC7 whole entry): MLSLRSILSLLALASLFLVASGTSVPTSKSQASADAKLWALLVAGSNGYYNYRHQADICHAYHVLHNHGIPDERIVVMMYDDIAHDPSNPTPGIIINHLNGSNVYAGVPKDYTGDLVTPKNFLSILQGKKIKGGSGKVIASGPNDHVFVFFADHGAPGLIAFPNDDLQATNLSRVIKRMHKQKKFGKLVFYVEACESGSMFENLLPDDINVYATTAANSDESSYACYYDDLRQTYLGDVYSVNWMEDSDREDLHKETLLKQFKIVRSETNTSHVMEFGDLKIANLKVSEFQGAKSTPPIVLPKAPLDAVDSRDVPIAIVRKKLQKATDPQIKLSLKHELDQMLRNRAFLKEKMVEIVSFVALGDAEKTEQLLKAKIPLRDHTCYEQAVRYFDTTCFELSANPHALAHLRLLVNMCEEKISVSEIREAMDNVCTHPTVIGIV
Protocol: (§1) AE activity in the induction medium was measured with the substrate Cbz-Ala-Ala-Asn-AMC. In a black 96-well microtiter plate, aza-peptidyl inhibitors were added to the reaction buffer containing the activated enzyme, and allowed to incubate at room temperature for 20 min. Then, substrate Cbz- Ala-Ala-Asn-AMC was added and the reaction allowed proceeding for 20 min. Plotting the relative fluorescence units (RFU)/min against the inhibitor concentration (uM) permitted calculation of the IC50 value.

[2] = target: T2, Clan CD, family C13, asparaginyl endopeptidase-like cysteine peptidase (Trichomonas vaginalis (strain ATCC PRA-98 / G3), UniProt A2DYT2)
T2 sequence (A2DYT2 whole entry): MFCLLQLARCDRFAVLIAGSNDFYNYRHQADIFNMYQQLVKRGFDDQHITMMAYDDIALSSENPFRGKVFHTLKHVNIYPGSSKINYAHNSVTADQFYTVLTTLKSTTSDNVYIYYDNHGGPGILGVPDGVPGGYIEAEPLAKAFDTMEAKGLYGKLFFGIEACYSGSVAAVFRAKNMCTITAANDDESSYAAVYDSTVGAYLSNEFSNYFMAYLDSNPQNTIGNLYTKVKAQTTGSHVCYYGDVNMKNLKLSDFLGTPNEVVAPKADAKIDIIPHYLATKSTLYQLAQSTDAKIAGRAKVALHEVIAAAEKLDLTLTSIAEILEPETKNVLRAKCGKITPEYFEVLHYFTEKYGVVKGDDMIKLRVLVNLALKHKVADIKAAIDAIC
Protocol: as §1

Legumain [3] = target: T3, Legumain (Schistosoma mansoni, UniProt Q9NFY9)
T3 sequence (Q9NFY9 whole entry): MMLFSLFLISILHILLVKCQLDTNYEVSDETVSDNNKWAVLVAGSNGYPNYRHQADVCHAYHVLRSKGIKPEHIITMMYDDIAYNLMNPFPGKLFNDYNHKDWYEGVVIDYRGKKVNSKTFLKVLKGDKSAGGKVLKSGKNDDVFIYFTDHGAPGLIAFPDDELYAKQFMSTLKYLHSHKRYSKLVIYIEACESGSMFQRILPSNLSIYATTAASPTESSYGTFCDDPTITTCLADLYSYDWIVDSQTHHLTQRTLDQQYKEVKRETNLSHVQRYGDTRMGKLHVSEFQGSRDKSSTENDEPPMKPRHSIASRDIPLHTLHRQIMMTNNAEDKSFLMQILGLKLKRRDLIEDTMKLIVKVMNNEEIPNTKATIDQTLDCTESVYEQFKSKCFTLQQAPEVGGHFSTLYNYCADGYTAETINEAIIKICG
Protocol: as §1

SMILES	IC50 (Legumain [1])	IC50 ([2]; pH 6.8, 22 °C)	IC50 ([2]; 25 °C)	IC50 (Legumain [3]; pH 6.8, 22 °C)	IC50 (Legumain [3]; 25 °C)
C[C@H](NC(=O)OCc1ccccc1)C(=O)N[C@@H](C)C(=O)NN(CC(N)=O)C(=O)C=CC(=O)OCc1ccccc1 [benzyl (2E)-3-{N'-[(2S)-2-[(2S)-2-{[(benzyloxy)carbonyl]amino}propanamido]propanoyl]-N-(carbamoylmethyl)hydrazinecarbonyl}prop-2-enoate]	< 1 nM	5 nM			
CC=CC=CC(=O)N(CC(N)=O)NC(=O)[C@H](C)NC(=O)[C@H](C)NC(=O)OCc1ccccc1 [benzyl N-[(1S)-1-{[(1S)-1-[N'-(carbamoylmethyl)-N'-(2E,4E)-hexa-2,4-dienoylhydrazinecarbonyl]ethyl]carbamoyl}ethyl]carbamate]			8000 nM		
CCCCN(CCCC)C(=O)C=CC(=O)N(CC(N)=O)NC(=O)[C@H](C)NC(=O)[C@H](C)NC(=O)OCc1ccccc1 [benzyl N-[(1S)-1-{[(1S)-1-[N'-(carbamoylmethyl)-N'-[(2E)-3-(dibutylcarbamoyl)prop-2-enoyl]hydrazinecarbonyl]ethyl]carbamoyl}ethyl]carbamate]	100 nM	1000 nM		550 nM	
CCN(CC)C(=O)C=CC(=O)N(CC(N)=O)NC(=O)[C@H](C)NC(=O)[C@H](C)NC(=O)OCc1ccccc1 [benzyl N-[(1S)-1-{[(1S)-1-[N'-(carbamoylmethyl)-N'-[(2E)-3-(diethylcarbamoyl)prop-2-enoyl]hydrazinecarbonyl]ethyl]carbamoyl}ethyl]carbamate]	2700 nM	2000 nM			
C[C@H](NC(=O)OCc1ccccc1)C(=O)N[C@@H](C)C(=O)NN(CC(N)=O)C(=O)C=Cc1ccco1 [benzyl N-[(1S)-1-{[(1S)-1-[N'-(carbamoylmethyl)-N'-[(2E)-3-(furan-2-yl)prop-2-enoyl]hydrazinecarbonyl]ethyl]carbamoyl}ethyl]carbamate]	7500 nM			> 2000 nM	
C[C@H](NC(=O)OCc1ccccc1)C(=O)N[C@@H](C)C(=O)NN(CC(N)=O)C(=O)C=CC(=O)N1CCc2ccccc21 [benzyl N-[(1S)-1-{[(1S)-1-[N'-(carbamoylmethyl)-N'-[(2E)-4-(2,3-dihydro-1H-indol-1-yl)-4-oxobut-2-enoyl]hydrazinecarbonyl]ethyl]carbamoyl}ethyl]carbamate]	18 nM		50 nM		70 nM
C[C@H](NC(=O)OCc1ccccc1)C(=O)N[C@@H](C)C(=O)NN(CC(N)=O)C(=O)C=CC(=O)N1Cc2ccccc2C1 [benzyl N-[(1S)-1-{[(1S)-1-[N'-(carbamoylmethyl)-N'-[(2E)-4-(2,3-dihydro-1H-isoindol-2-yl)-4-oxobut-2-enoyl]hydrazinecarbonyl]ethyl]carbamoyl}ethyl]carbamate]	4.5 nM		20 nM		300 nM
C[C@H](NC(=O)OCc1ccccc1)C(=O)N[C@@H](C)C(=O)NN(CC(N)=O)C(=O)C=CC(=O)N(Cc1ccco1)Cc1ccco1 [benzyl N-[(1S)-1-{[(1S)-1-{N'-[(2E)-3-[bis(furan-2-ylmethyl)carbamoyl]prop-2-enoyl]-N'-(carbamoylmethyl)hydrazinecarbonyl}ethyl]carbamoyl}ethyl]carbamate]	15000 nM		5000 nM		900 nM
C[C@H](NC(=O)OCc1ccccc1)C(=O)N[C@@H](C)C(=O)NN(CC(N)=O)C(=O)C=CC(=O)NCCc1ccccc1 [benzyl N-[(1S)-1-{[(2S)-1-[(2E)-3-[N-(carbamoylmethyl)hydrazido]-N-(2-phenylethyl)prop-2-enamide]-1-oxopropan-2-yl]carbamoyl}ethyl]carbamate]	350 nM	10 nM		600 nM	
C[C@H](NC(=O)OCc1ccccc1)C(=O)N[C@@H](C)C(=O)NN(CC(N)=O)C(=O)C=CC(=O)NCc1ccc(F)cc1 [benzyl N-[(1S)-1-{[(2S)-1-[(2E)-3-[N-(carbamoylmethyl)hydrazido]-N-[(4-fluorophenyl)methyl]prop-2-enamide]-1-oxopropan-2-yl]carbamoyl}ethyl]carbamate]	250 nM	75 nM		800 nM	
C[C@H](NC(=O)OCc1ccccc1)C(=O)N[C@@H](C)C(=O)NN(CC(N)=O)C(=O)C=CC(=O)N(C)CCc1ccccc1 [benzyl N-[(1S)-1-{[(2S)-1-[(2E)-3-[N-(carbamoylmethyl)hydrazido]-N-methyl-N-(2-phenylethyl)prop-2-enamide]-1-oxopropan-2-yl]carbamoyl}ethyl]carbamate]			50 nM	600 nM	
C[C@H](NC(=O)OCc1ccccc1)C(=O)N[C@@H](C)C(=O)NN(CC(N)=O)C(=O)C=CC(=O)N(C)Cc1cccc2ccccc12 [benzyl N-[(1S)-1-{[(2S)-1-[(2E)-3-[N-(carbamoylmethyl)hydrazido]-N-methyl-N-(naphthalen-1-ylmethyl)prop-2-enamide]-1-oxopropan-2-yl]carbamoyl}ethyl]carbamate]	5.5 nM		< 1 nM	35 nM	
C[C@H](NC(=O)OCc1ccccc1)C(=O)N[C@@H](C)C(=O)NN(CC(N)=O)C(=O)C=CC(=O)N(C)c1ccccc1 [benzyl N-[(1S)-1-{[(2S)-1-[(2E)-3-[N-(carbamoylmethyl)hydrazido]-N-methyl-N-phenylprop-2-enamide]-1-oxopropan-2-yl]carbamoyl}ethyl]carbamate]	1.8 nM	5 nM		60 nM	
C[C@H](NC(=O)OCc1ccccc1)C(=O)N[C@@H](C)C(=O)NN(CC(N)=O)C(=O)C=CC(=O)N(C)C(Cc1ccccc1)C(=O)N(C)CCc1ccccc1 (stereo partly drawn) [benzyl N-[(1S)-1-{[(2S)-1-[(2E)-3-[N-(carbamoylmethyl)hydrazido]-N-methyl-N-{1-[methyl(2-phenylethyl)carbamoyl]-2-phenylethyl}prop-2-enamide]-1-oxopropan-2-yl]carbamoyl}ethyl]carbamate]	300 nM		80 nM		750 nM
C[C@H](NC(=O)OCc1ccccc1)C(=O)N[C@@H](C)C(=O)NN(CC(N)=O)C(=O)C=CC(=O)Nc1ccccc1 [benzyl N-[(1S)-1-{[(2S)-1-[(2E)-3-[N-(carbamoylmethyl)hydrazido]-N-phenylprop-2-enamide]-1-oxopropan-2-yl]carbamoyl}ethyl]carbamate]	10 nM	20 nM		700 nM	
C[C@H](NC(=O)OCc1ccccc1)C(=O)N[C@@H](C)C(=O)NN(CC(N)=O)C(=O)C=CC(=O)N1CCCCC1 [benzyl N-[(1S)-1-{[(2S)-1-[(2E)-N-(carbamoylmethyl)-4-oxo-4-(piperidin-1-yl)but-2-enehydrazido]-1-oxopropan-2-yl]carbamoyl}ethyl]carbamate]		500 nM		1000 nM	
C[C@H](NC(=O)OCc1ccccc1)C(=O)N[C@@H](C)C(=O)NN(CC(N)=O)C(=O)C=CC(=O)c1ccccc1 [benzyl N-[(1S)-1-{[(2S)-1-[(2E)-N-(carbamoylmethyl)-4-oxo-4-phenylbut-2-enehydrazido]-1-oxopropan-2-yl]carbamoyl}ethyl]carbamate]	> 20000 nM		10000 nM		
C[C@H](NC(=O)OCc1ccccc1)C(=O)N[C@@H](C)C(=O)NN(CC(N)=O)C(=O)C=CC(=O)N(C)Cc1ccccc1 [benzyl N-[(1S)-1-{[(2S)-1-[(2E)-N-benzyl-3-[N-(carbamoylmethyl)hydrazido]-N-methylprop-2-enamide]-1-oxopropan-2-yl]carbamoyl}ethyl]carbamate]	< 1 nM		0.55 nM		
CCOC(=O)C=CC(=O)N(CC(N)=O)NC(=O)[C@H](C)NC(=O)[C@H](C)NC(=O)OCc1ccccc1 [ethyl (2E)-4-[(2S)-2-[(2S)-2-{[(benzyloxy)carbonyl]amino}propanamido]-N'-(carbamoylmethyl)propanehydrazido]-4-oxobut-2-enoate]	4.5 nM	4.5 nM			
